Laboratory results from patent publication US20080279866A1, “Induction of immunosuppression by inhibition of ATM” (The Brigham and Women's Hospital, Inc., priority 2006, published 2008).

Assays:
ATM = ATM (Homo sapiens, UniProt Q13315); settings: cited from earlier work
ATR = ATR (Homo sapiens, UniProt Q13535); settings: 3 mM caffeine; cited from earlier work
C57BL/6 T cells [1] = test: Stimulation of T cells with anti-CD3 and CD28 in the presence of caffeine (annexin-V/CFSE flow cytometry); assay type: cell-based, mouse
Experimental: Cells were then labeled for 20 minutes with 2 μM 5(6)-Carboxyfluorescein diacetate N-succinimidyl ester (CFSE, Sigma-Aldrich) in Hank's balanced salt solution (HBSS, Mediatech, Herndon, Va.). Cells were plated at a concentration of 2-5×10^6/ml in Dulbecco's modified eagle's medium (DMEM (Mediatech) supplemented with 15% heat-inactivated fetal calf serum (Sigma-Aldrich, St. […] Cells were treated with 1 μg/ml anti-CD3 antibody (2C11 (30)) and 1 μg/ml anti-CD28 antibody (37.51, Gross, et al., J. Immunol. 149:380 (1992)). […] For studies of Atm−/− T cell proliferation in response to mitogens, purified T cells were cultured with 2 μg/ml Concanavalin A or 10 ng/ml PMA and 1 μg/m ionomycin. Stimulation of T cells in the Presence of Caffeine: […] Some cultures were, in addition, treated with 2 mM N-acetyl cysteine (Sigma-Aldrich). Flow Cytometry: Cells were harvested, washed in HBSS and stained with Annexin-V phycoerythrin (BD Biosciences), or Annexin V-biotin (R&D Systems) in addition to streptavidin conjugated phycoerythrin according to the manufacturer's instructions. Cells were then stained with anti-CD4-APC (RM4-5, BD Biosciences) or anti-CD8-APC (53-6.7 BD Biosciences) and 7-actinomycin D (Sigma-Aldrich) or propidium iodide (Sigma-Aldrich). All analysis was performed using. FloJo software (TreeStar Inc).

[2] = test system: ATM targets including p53, H2AX and NBS1; settings: cited from earlier work
C57BL/6 T cells [3] = test: Stimulation of T cells with anti-CD3 and CD28 in the presence of KU-55933 (annexin-V/CFSE flow cytometry); assay type: cell-based, mouse
Experimental: Cells were then labeled for 20 minutes with 2 μM 5(6)-Carboxyfluorescein diacetate N-succinimidyl ester (CFSE, Sigma-Aldrich) in Hank's balanced salt solution (HBSS, Mediatech, Herndon, Va.). Cells were plated at a concentration of 2-5×10^6/ml in Dulbecco's modified eagle's medium (DMEM (Mediatech) supplemented with 15% heat-inactivated fetal calf serum (Sigma-Aldrich, St. Louis, Mo.), penicillin (100 U/ml), streptomycin (100 μg/ml), 2 mM L-glutamine, 10 mM Hepes, 0.1 mM nonessential amino acids, 1 mM sodium pyruvate (Mediatech) (complete DMEM). Cells were treated with 1 μg/ml anti-CD3 antibody (2C11 (30)) and 1 μg/ml anti-CD28 antibody (37.51, Gross, et al., J. Immunol. 149:380 (1992)). Cells were cultured at 37 C, 5% CO2 for the indicated time. For studies of Atm−/− T cell proliferation in response to mitogens, purified T cells were cultured with 2 μg/ml Concanavalin A or 10 ng/ml PMA and 1 μg/m ionomycin.
Stimulation of T cells in the Presence of KU-55933: T cells were purified from C57BL/6 mice (Jackson Laboratories) and re-suspended at 1.5×10^6 cells/ml in complete DMEM with 1 μg/10^6 cells anti-CD3 and CD28 and the indicated concentration of KU-55933 (KuDos Pharmaceuticals) or the same volume of DMSO (Sigma-Aldrich). Some cultures were in addition treated with 4 mM N-acetyl cysteine (Sigma-Aldrich).
Flow Cytometry: Cells were harvested, washed in HBSS and stained with Annexin-V phycoerythrin (BD Biosciences), or Annexin V-biotin (R&D Systems) in addition to streptavidin conjugated phycoerythrin according to the manufacturer's instructions. Cells were then stained with anti-CD4-APC (RM4-5, BD Biosciences) or anti-CD8-APC (53-6.7 BD Biosciences) and 7-actinomycin D (Sigma-Aldrich) or propidium iodide (Sigma-Aldrich). All analysis was performed using. FloJo software (TreeStar Inc).

[4] = test system: other PI-3 kinase-like kinase family members; settings: cited from earlier work
alloreactive T cells = test: Cytokine production of alloreactive T cells stimulated with alloantigen; assay type: cell-based; settings: treated with ATM inhibiting agent in addition to alloantigen; preliminary data
[5] = test system: graft vs. host disease (GVHD); test: GVHD after BMT: lethally irradiated Balb/c mice given C57BL/6 bone marrow and treated splenocytes; assay type: in vivo, mouse
Experimental: To test this, Balb/c mice were lethally irradiated one day prior to BMT with C57BL/6 bone marrow. 48 Hours after BMT, mice received splenocytes treated with allogeneic stimulators, allogeneic stimulators and KU55933, or no stimulators and KU55933.

Atm deficient T cells = test: Stimulation of Atm deficient T cells with anti-CD3 and CD28 with or without NAC; assay type: cell-based, mouse; settings: 2 mM NAC
From the text: Mice: Heterozygous 129S6/SvEvTac-Atm^tm1-Awb mice […] were purchased from the Jackson Laboratory (Bar Harbor, Me.). An independently generated Atm knockout mouse model was used to confirm our observations (Borghesani, et al., Proc. Nat'l Acad. Sci. USA 97:3336 (2000)). All mice were housed under microisolator conditions in autoclaved cages and were maintained on irradiated feed and autoclaved acidified drinking water. All sentinel mice housed in the same colony were free of viral antibodies. Four- to 6-week-old mice were used in all experiments.
Purification and Stimulation of T Cells: Splenocytes were harvested from 4-6 week old Atm−/− mice or wild-type littermates bred in our animal facility. In some experiments C57BL/6 mice were used as a source of wild-type T cells. Red blood cells were lysed using ACK lysing buffer (Cambrex, Walkerville, Md.) for 3 minutes at room temperature. In experiments in which T cells were purified, splenocytes were incubated with anti-CD4 (GK1.5, Dialynas, et al., J. Immunol. 131:2445 (1983)) and anti-CD8 (2.43, Sarmiento, et al., J. Immunol. 125:2665 (1980)) antibodies for 30 min at 4° C. Cells were then washed and incubated with magnetic beads conjugated to anti-rat IgG antibody, prior to positive selection by MACS according to the manufacturer's instructions (Miltenyi Biotech, USA Auburn Calif.). […]

[6] = C57BL/6 T cells stimulated with anti-CD3 and CD28

ATM, sequence (Q13315 whole entry, species assumed): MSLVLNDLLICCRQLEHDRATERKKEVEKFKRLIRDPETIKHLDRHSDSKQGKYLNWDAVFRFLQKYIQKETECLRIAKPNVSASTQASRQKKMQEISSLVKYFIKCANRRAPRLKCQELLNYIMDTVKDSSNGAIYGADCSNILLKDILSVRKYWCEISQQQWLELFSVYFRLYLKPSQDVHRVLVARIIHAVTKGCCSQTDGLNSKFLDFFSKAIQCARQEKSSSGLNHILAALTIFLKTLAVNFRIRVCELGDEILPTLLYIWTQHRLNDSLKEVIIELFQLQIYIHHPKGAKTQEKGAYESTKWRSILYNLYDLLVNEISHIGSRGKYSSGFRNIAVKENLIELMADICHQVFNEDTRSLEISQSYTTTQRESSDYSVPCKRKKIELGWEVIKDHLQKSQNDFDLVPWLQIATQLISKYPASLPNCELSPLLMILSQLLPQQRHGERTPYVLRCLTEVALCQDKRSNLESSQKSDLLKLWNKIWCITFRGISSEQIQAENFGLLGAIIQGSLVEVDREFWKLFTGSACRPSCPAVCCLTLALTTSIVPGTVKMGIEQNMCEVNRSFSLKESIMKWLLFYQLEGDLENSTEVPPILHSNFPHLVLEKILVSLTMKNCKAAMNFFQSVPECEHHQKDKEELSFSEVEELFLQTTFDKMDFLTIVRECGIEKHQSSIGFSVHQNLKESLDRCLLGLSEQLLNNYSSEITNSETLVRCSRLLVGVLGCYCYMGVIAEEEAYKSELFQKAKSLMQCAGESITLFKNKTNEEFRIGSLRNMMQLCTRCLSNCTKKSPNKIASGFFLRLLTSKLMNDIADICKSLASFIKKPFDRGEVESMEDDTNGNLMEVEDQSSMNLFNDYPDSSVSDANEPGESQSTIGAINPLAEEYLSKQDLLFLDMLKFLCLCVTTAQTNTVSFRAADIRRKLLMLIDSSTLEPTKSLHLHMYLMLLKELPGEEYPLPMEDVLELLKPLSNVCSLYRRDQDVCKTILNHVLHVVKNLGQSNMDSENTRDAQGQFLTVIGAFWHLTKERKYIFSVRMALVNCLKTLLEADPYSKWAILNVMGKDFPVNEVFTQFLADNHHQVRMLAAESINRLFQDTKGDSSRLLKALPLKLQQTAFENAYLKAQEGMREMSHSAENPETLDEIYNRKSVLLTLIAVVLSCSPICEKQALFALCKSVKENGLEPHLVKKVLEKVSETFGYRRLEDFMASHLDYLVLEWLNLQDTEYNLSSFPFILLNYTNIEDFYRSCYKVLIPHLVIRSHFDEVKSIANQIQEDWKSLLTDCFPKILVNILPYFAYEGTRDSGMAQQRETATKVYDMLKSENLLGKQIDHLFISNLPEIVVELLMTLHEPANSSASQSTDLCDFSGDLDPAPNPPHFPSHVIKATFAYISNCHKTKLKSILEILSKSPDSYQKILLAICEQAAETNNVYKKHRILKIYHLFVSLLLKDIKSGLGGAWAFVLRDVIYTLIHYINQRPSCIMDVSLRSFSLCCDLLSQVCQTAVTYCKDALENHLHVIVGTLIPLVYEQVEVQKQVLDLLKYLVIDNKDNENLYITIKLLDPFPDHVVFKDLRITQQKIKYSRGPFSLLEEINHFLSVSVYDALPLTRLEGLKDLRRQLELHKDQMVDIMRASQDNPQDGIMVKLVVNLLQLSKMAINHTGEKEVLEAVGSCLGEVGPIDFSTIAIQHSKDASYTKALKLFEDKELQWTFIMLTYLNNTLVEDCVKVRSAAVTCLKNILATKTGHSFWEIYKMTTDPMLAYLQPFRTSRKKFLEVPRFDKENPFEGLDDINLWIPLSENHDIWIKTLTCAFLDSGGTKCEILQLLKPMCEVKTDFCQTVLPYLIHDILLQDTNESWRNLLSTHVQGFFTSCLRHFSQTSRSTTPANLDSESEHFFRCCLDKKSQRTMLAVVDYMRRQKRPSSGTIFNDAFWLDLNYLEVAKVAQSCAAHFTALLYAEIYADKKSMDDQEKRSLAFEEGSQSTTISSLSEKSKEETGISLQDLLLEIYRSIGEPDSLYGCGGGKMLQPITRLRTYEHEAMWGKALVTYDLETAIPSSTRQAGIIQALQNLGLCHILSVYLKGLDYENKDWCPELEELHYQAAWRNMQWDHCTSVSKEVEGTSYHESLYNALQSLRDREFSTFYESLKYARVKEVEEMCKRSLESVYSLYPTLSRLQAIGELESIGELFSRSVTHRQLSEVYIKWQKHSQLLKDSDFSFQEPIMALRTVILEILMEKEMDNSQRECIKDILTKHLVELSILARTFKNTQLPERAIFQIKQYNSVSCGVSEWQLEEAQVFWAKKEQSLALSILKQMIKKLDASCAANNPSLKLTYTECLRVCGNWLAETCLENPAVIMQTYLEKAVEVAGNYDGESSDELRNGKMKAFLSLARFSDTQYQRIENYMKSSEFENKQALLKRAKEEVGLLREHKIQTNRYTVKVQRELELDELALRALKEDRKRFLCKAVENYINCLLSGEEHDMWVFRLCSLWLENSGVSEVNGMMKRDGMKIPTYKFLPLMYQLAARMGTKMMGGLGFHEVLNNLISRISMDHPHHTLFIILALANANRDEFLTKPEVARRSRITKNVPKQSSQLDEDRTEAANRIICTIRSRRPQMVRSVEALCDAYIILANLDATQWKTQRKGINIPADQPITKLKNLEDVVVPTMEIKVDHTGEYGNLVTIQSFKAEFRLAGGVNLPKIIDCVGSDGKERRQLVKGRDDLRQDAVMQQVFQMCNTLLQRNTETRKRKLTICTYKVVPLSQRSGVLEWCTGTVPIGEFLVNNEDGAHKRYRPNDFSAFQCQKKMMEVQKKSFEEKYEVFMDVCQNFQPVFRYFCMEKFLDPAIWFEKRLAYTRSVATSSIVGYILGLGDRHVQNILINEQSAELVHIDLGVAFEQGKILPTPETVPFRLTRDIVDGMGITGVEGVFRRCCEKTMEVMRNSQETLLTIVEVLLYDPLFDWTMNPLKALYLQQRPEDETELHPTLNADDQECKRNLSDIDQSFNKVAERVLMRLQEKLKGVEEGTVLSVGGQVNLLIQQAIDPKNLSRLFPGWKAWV

Cn1c(=O)c2c(ncn2C)n(C)c1=O [caffeine]
ATM function in vitro (ATM; 1 mM caffeine): inhibit ATM | inhibition of ATM function (ATM; 3 mM caffeine): 50% | inhibition of ATR function (ATR): 50% | T cells remaining annexin-V negative (C57BL/6 T cells [1]; 2.5 mM caffeine, 48 and 72 hours after stimulation): only T cells which did not divide remained annexin-V negative | effect on cell viability (C57BL/6 T cells [1]; 2.5 mM caffeine, 24 hours, anti-CD3 and CD28): no effect | caffeine concentration (as low as) that induced T cell apoptosis (C57BL/6 T cells [1]; [6]): 1 mM | response of normal T cells exposed to anti-CD3 and anti-CD28 (C57BL/6 T cells [1]; exposed to caffeine): undergo apoptosis | frequency of T cells undergoing apoptosis with increasing concentration (C57BL/6 T cells [1]; increasing caffeine concentration, anti-CD3 and CD28): dose dependent increase

O=c1cc(-c2cccc3c2Sc2ccccc2S3)oc(N2CCOCC2)c1 [KU-55933, 2-morpholin-4-yl-6-thianthren-1-yl-pyran-4-one]
ionizing-radiation-dependent phosphorylation of known ATM targets [2]: abrogation | T cell proliferation versus untreated controls (C57BL/6 T cells [3]; 20 μM KU-55933, 48 and 72 hours after stimulation): significantly less proliferation | effect on cell viability (C57BL/6 T cells [3]; 20 μM KU-55933, 24 hours, anti-CD3 and CD28): no effect | KU-55933 concentration (as low as) that induced T cell apoptosis (C57BL/6 T cells [3]; [6]): 10 µM | response of normal T cells exposed to anti-CD3 and anti-CD28 (C57BL/6 T cells [3]; exposed to KU-55933): undergo apoptosis | frequency of T cells undergoing apoptosis with increasing concentration (C57BL/6 T cells [3]; increasing KU-55933 concentration, anti-CD3 and CD28): dose dependent increase | inhibition of other PI-3 kinase-like kinase family members [4]: does not inhibit | production of IL-2, IFN-g and IL-4 in response to alloantigen (alloreactive T cells): fail to produce these cytokines | animals surviving long-term ([5]; recipients of splenocytes treated ex vivo with allogeneic stimulators and KU55933, given 48 hours after BMT): three out of four | development of GVHD (time) ([5]; recipients of unstimulated splenocytes treated with KU55933): 30 to 40 days

CC(=O)N[C@@H](CS)C(=O)O [NAC, N-acetyl cysteine]
apoptosis induced in the presence of KU-55933, effect of NAC (C57BL/6 T cells [3]; NAC added (4 mM per method), 20 μM KU-55933, anti-CD3 and CD28, normal T cells): prevented | proliferation of Atm deficient T cells, effect of NAC (Atm deficient T cells): restored the ability of Atm deficient T cells to undergo proliferation | apoptosis induced in the presence of caffeine, effect of NAC (C57BL/6 T cells [1]; 2 mM NAC added, 2.5 mM caffeine, anti-CD3 and CD28, normal T cells): prevented
